From patent publication US20250051344A1, “BIFUNCTIONAL SELECTIVE DEGRADERS OF SMARCA2 AND THERAPEUTIC USES THEREOF” (Nurix Therapeutics, Inc., priority 2023, published 2025)

Key:
SMARCA2 = target: T1, SMARCA2 (Homo sapiens, UniProt P51531); assay: SMARCA2 Cellular Degradation Assay (Western blot analysis on Jess platform); format: cell-based; settings: for Dmax / DC50: cellular degradation; for Fold Selectivity SMARCA4/2: ratio DC50 SMARCA4 / DC50 SMARCA2
T1 construct: endogenous in cells
In short: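 Lysates of cells extracted from tumors, 5 μg total protein per capillary, were probed for SMARCA2 and β-actin by capillary Western on Jess using chemiluminescence and fluorescence detection. SMARCA2 peak area was background-subtracted and normalized to actin, then expressed as % remaining relative to vehicle control.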

SMARCA4 = target: T2, SMARCA4 (Homo sapiens, UniProt P51532); assay: Cellular degradation assay, SMARCA4 (Table 1); format: cell-based
T2 construct: endogenous in cells
T2 sequence (P51532 whole entry, species assumed): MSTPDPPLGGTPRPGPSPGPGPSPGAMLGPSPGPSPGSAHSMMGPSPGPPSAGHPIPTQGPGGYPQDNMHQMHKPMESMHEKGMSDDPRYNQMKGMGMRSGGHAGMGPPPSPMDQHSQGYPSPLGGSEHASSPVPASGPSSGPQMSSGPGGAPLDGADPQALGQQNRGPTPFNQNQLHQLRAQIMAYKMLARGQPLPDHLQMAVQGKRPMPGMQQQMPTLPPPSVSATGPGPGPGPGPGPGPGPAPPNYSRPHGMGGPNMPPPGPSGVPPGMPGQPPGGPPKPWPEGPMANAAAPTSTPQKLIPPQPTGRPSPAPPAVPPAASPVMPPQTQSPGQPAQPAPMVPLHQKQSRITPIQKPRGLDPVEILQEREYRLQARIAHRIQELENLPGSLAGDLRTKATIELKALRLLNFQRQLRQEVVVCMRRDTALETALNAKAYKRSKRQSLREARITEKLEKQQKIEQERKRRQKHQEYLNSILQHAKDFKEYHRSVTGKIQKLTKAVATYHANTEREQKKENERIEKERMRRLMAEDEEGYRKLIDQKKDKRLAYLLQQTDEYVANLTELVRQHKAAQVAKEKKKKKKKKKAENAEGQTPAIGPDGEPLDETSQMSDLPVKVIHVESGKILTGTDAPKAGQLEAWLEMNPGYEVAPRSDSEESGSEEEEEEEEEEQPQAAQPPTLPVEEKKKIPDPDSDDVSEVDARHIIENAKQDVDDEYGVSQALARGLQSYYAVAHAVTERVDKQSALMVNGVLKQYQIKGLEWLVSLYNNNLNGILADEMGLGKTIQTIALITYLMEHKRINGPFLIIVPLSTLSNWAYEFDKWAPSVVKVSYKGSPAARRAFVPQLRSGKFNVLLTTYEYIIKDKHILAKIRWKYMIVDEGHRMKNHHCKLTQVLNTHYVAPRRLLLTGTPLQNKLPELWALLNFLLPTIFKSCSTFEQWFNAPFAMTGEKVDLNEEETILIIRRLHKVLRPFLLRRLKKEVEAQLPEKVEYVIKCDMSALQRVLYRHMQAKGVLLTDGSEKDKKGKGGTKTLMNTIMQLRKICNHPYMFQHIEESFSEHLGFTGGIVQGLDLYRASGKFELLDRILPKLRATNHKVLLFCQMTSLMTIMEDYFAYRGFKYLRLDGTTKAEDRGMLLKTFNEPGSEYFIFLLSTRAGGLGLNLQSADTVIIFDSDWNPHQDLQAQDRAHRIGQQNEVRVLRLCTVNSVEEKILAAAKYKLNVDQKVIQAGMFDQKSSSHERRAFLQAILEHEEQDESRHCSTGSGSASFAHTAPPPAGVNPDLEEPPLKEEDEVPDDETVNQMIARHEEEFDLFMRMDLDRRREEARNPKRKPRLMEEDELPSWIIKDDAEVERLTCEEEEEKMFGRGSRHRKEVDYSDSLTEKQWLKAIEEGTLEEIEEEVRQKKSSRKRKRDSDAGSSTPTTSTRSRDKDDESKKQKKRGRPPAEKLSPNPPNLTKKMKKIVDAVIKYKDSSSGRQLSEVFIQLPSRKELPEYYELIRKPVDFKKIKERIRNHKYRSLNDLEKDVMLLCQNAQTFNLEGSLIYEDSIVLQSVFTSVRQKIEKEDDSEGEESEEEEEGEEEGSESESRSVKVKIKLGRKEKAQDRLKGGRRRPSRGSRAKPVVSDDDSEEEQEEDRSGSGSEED

T1 sequence (P51531 whole entry, species assumed): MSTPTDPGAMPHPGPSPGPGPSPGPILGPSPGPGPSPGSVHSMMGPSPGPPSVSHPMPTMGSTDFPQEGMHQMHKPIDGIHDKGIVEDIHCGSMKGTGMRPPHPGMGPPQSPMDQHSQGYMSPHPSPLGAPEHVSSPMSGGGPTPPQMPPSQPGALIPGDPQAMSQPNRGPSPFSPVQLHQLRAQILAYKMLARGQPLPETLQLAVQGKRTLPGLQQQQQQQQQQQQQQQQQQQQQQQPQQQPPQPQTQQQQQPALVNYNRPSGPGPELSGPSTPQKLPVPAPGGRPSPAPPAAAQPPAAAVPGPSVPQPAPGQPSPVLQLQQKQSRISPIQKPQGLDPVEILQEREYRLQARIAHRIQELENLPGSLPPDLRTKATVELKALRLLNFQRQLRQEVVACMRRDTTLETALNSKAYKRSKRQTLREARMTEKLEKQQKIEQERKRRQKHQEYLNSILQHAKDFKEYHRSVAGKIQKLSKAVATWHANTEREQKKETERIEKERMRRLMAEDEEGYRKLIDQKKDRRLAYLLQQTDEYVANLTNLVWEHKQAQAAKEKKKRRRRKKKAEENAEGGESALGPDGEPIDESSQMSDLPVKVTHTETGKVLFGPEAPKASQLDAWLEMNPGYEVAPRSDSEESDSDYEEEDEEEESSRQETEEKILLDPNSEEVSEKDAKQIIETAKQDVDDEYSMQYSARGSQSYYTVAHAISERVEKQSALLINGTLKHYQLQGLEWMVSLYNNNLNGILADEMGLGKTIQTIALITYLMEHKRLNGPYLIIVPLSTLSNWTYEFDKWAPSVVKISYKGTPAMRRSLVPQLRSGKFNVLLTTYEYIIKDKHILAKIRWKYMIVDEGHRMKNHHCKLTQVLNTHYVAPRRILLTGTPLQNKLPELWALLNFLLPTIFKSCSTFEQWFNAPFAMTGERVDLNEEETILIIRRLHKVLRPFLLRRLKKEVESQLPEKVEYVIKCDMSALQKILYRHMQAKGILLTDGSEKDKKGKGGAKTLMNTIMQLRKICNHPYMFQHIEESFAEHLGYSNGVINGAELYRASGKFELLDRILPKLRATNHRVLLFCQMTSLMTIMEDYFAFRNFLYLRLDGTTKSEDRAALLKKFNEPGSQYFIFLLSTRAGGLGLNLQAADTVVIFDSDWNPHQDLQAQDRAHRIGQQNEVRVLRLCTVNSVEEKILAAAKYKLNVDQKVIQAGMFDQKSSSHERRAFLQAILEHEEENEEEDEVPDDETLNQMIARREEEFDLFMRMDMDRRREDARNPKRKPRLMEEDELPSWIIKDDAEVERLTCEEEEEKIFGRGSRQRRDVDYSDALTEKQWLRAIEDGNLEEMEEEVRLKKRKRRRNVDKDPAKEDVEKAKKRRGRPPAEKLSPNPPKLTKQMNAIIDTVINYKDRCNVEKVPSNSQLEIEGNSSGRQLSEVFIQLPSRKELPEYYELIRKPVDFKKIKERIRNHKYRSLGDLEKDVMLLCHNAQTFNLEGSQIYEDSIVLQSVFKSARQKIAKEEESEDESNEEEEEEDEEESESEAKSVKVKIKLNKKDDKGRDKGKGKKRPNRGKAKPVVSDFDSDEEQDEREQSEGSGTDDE

Row | SMILES | Dmax (SMARCA2) [%] | Fold Selectivity SMARCA4/2 (SMARCA2) | Dmax (SMARCA4) [%] | DC50 (SMARCA2) [nM] | DC50 (SMARCA4) [nM]
1 | O=C1CC[C@H](c2ccc(N3CCC(CN4CC(F)(F)C5(C4)CN(C(=O)C4(c6ccccc6)CCN(c6cnnc(-c7ccccc7O)c6)CC4)C5)CC3)cc2)C(=O)N1 [Example 52, (3R)-3-(4-{4-[(8,8-difluoro-2-{1-[6-(2-hydroxyphenyl)pyridazin-4-yl]-4-phenylpiperidine-4-carbonyl}-2,6-diazaspiro[3.4]octan-6-yl)methyl]piperidin-1-yl}phenyl)piperidine-2,6-dione] | 44 | 1 | 13.7 | – | –
2 | CC(C)c1cc(C2(C(=O)N3CC4(CN(CCC5CCN(c6ccc(C7CCC(=O)NC7=O)cc6)CC5)C4)C3)CCN(c3cnnc(-c4ccccc4O)c3)CC2)no1 (racemic) [Example 79, rac-(3R)-3-(4-{4-[2-(6-{1-[6-(2-hydroxyphenyl)pyridazin-4-yl]-4-[5-(propan-2-yl)-1,2-oxazol-3-yl]piperidine-4-carbonyl}-2,6-diazaspiro[3.3]heptan-2-yl)ethyl]piperidin-1-yl}phenyl)piperidine-2,6-dione] | 70.7 | 806 | 21.9 | 12.4 | –
3 | O=C1CCC(c2ccc(N3CCC(CN4CC5(C4)CN(C(=O)C4(c6cccc(Cl)c6)CCN(c6cnnc(-c7ccccc7O)c6)CC4)C5)CC3)cc2)C(=O)N1 (racemic) [Example 27, rac-(3R)-3-{4-[4-({6-[4-(3-chlorophenyl)-1-[6-(2-hydroxyphenyl)pyridazin-4-yl]piperidine-4-carbonyl]-2,6-diazaspiro[3.3]heptan-2-yl}methyl)piperidin-1-yl]phenyl}piperidine-2,6-dione] | 72.8 | 7.24 | 56.5 | 18.2 | 132
4 | O=C1CCC(c2ccc(N3CCC4(CC3)COC(CN3CC5(CCN(C(=O)C6(c7ccccc7)CCN(c7cnnc(-c8ccccc8O)c7)CC6)CC5)C3)C4)cc2)C(=O)N1 (racemic) [Example 127, rac-(3R)-3-(4-{3-[(7-{1-[6-(2-hydroxyphenyl)pyridazin-4-yl]-4-phenylpiperidine-4-carbonyl}-2,7-diazaspiro[3.5]nonan-2-yl)methyl]-2-oxa-8-azaspiro[4.5]decan-8-yl}phenyl)piperidine-2,6-dione] | 64.2 | 312 | 56.1 | 32 | –
5 | O=C1CC[C@H](c2ccc(N3CCC(CNC4CC5CCCC(C4)C5NC(=O)C4(c5ccccc5)CCN(c5cnnc(-c6ccccc6O)c5)CC4)CC3)cc2)C(=O)N1 (stereo partly drawn) [Example 49, N-(3-{[(1-{4-[(3R)-2,6-dioxopiperidin-3-yl]phenyl}piperidin-4-yl)methyl]amino}bicyclo[3.3.1]nonan-9-yl)-1-[6-(2-hydroxyphenyl)pyridazin-4-yl]-4-phenylpiperidine-4-carboxamide] | 76.9 | 6.52 | 59.8 | 26.4 | 172
6 | CN(C(=O)C1(Oc2ccccc2)CCN(c2cnnc(-c3ccccc3O)c2)CC1)C1CCN(CC2CCN(c3ccc([C@H]4CCC(=O)NC4=O)cc3)CC2)C2(CC2)C1 (mixture of isomers) [Example 168, N-[(7RS)-4-[(1-{4-[(3R)-2,6-dioxopiperidin-3-yl]phenyl}piperidin-4-yl)methyl]-4-azaspiro[2.5]octan-7-yl]-1-[6-(2-hydroxyphenyl)pyridazin-4-yl]-N-methyl-4-phenoxypiperidine-4-carboxamide] | 90.6 | 6 | 77.3 | 18.4 | 113
7 | O=C1CCC(c2ccc(N3CCC(F)(CN4CCC(NC(=O)C5(c6ccccc6)CCN(c6cnnc(-c7ccccc7O)c6)CC5)CC4)CC3)cc2)C(=O)N1 (racemic) [Example 179, rac-N-{1-[(1-{4-[(3R)-2,6-dioxopiperidin-3-yl]phenyl}-4-fluoropiperidin-4-yl)methyl]piperidin-4-yl}-1-[6-(2-hydroxyphenyl)pyridazin-4-yl]-4-phenylpiperidine-4-carboxamide] | 83.4 | 12 | 57.7 | 17.9 | 211

More lines, in order of falling DC50 (SMARCA2), values ahead:

Row | Dmax (SMARCA2) [%] | Fold Selectivity SMARCA4/2 (SMARCA2) | Dmax (SMARCA4) [%] | DC50 (SMARCA2) [nM] | DC50 (SMARCA4) [nM] | SMILES
8 | 71.6 | 984 | 15 | 10.2 | – | O=C1CCC(c2ccc(N3CCC(CCN4CC5(C4)CN(C(=O)C4(c6ccccc6F)CCN(c6cnnc(-c7ccccc7O)c6)CC4)C5)CC3)cc2)C(=O)N1 (racemic) [Example 132, rac-(3R)-3-{4-[4-(2-{6-[4-(2-fluorophenyl)-1-[6-(2-hydroxyphenyl)pyridazin-4-yl]piperidine-4-carbonyl]-2,6-diazaspiro[3.3]heptan-2-yl}ethyl)piperidin-1-yl]phenyl}piperidine-2,6-dione]
9 | 76.5 | 1170 | 34.8 | 8.55 | – | Cc1cc(C2(C(=O)N(C)C3CCN(CC4CCN(c5ccc(C6CCC(=O)NC6=O)cc5)CC4)CC3)CCN(c3cnnc(-c4ccccc4O)c3)CC2)on1 (racemic) [Example 90, rac-N-{1-[(1-{4-[(3R)-2,6-dioxopiperidin-3-yl]phenyl}piperidin-4-yl)methyl]piperidin-4-yl}-1-[6-(2-hydroxyphenyl)pyridazin-4-yl]-N-methyl-4-(3-methyl-1,2-oxazol-5-yl)piperidine-4-carboxamide]
10 | 89.2 | 37 | 54 | 4.55 | 167 | COc1cccc(C2(C(=O)N(C)C3CCN(CCC4CCN(c5ccc([C@H]6CCC(=O)NC6=O)cc5)CC4)CC3)CCN(c3cnnc(-c4ccccc4O)c3)CC2)c1 [Example 139, N-{1-[2-(1-{4-[(3R)-2,6-dioxopiperidin-3-yl]phenyl}piperidin-4-yl)ethyl]piperidin-4-yl}-1-[6-(2-hydroxyphenyl)pyridazin-4-yl]-4-(3-methoxyphenyl)-N-methylpiperidine-4-carboxamide]
11 | 89 | 9 | 67.1 | 4.09 | 38.3 | O=C1CCC(c2ccc(N3CCC(CN4CC5(C4)CN(C(=O)C4(c6ccccc6)CCN(c6cnnc(-c7ccccc7O)c6)CC4)C5)CC3)c(F)c2F)C(=O)N1 (racemic) [Example 138, rac-(3R)-3-(2,3-difluoro-4-{4-[(6-{1-[6-(2-hydroxyphenyl)pyridazin-4-yl]-4-phenylpiperidine-4-carbonyl}-2,6-diazaspiro[3.3]heptan-2-yl)methyl]piperidin-1-yl}phenyl)piperidine-2,6-dione]
12 | 82.1 | 2634 | 47.3 | 3.8 | – | CN(C(=O)C1(c2cnn(C)c2)CCN(c2cnnc(-c3ccccc3O)c2)CC1)C1CCN(CC2CCN(c3ccc(C4CCC(=O)NC4=O)cc3)CC2)CC1 (racemic) [Example 89, rac-N-{1-[(1-{4-[(3R)-2,6-dioxopiperidin-3-yl]phenyl}piperidin-4-yl)methyl]piperidin-4-yl}-1-[6-(2-hydroxyphenyl)pyridazin-4-yl]-N-methyl-4-(1-methyl-1H-pyrazol-4-yl)piperidine-4-carboxamide]
13 | 82.5 | 23 | 57.1 | 2.76 | 62.6 | O=C1CC[C@H](c2ccc(N3CCC(CN4CCC(NC(=O)C5(c6ccccn6)CCN(c6cnnc(-c7ccccc7O)c6)CC5)CC45CCC5)CC3)cc2)C(=O)N1 (stereo partly drawn) [Example 182, N-{5-[(1-{4-[(3R)-2,6-dioxopiperidin-3-yl]phenyl}piperidin-4-yl)methyl]-5-azaspiro[3.5]nonan-8-yl}-1-[6-(2-hydroxyphenyl)pyridazin-4-yl]-4-(pyridin-2-yl)piperidine-4-carboxamide]
14 | 91.8 | 5 | 82.6 | 1.56 | 8.12 | O=C1CC[C@H](n2ccc3cc(N4CCC(CN5CCC(NC(=O)C6(c7ccccc7)CCN(c7cnnc(-c8ccccc8O)c7)CC6)CC5)CC4)ccc3c2=O)C(=O)N1 [Example 157, N-{1-[(1-{2-[(3S)-2,6-dioxopiperidin-3-yl]-1-oxo-1,2-dihydroisoquinolin-6-yl}piperidin-4-yl)methyl]piperidin-4-yl}-1-[6-(2-hydroxyphenyl)pyridazin-4-yl]-4-phenylpiperidine-4-carboxamide]
15 | 94.9 | 11 | 84.2 | 1.24 | 13.2 | O=C1CCC(c2c(F)cc(N3CCC(CN4CCC5(CC4)CN(C(=O)C4(c6ccccc6)CCN(c6cnnc(-c7ccccc7O)c6)CC4)C5)CC3)cc2F)C(=O)N1 (racemic) [Example 193, rac-(3R)-3-(2,6-difluoro-4-{4-[(2-{1-[6-(2-hydroxyphenyl)pyridazin-4-yl]-4-phenylpiperidine-4-carbonyl}-2,7-diazaspiro[3.5]nonan-7-yl)methyl]piperidin-1-yl}phenyl)piperidine-2,6-dione]
16 | 93.2 | 34 | 66.9 | 0.57 | 19.2 | COC1(C(=O)N(C)C2CCN(CCC3CCN(c4cccc5c4n(C)c(=O)n5C4CCC(=O)NC4=O)CC3)CC2)CCN(c2cnnc(-c3ccccc3O)c2)CC1 (racemic) [Example 68, rac-N-(1-(2-(1-(1-(2,6-dioxopiperidin-3-yl)-3-methyl-2-oxo-2,3-dihydro-1H-benzo[d]imidazol-4-yl)piperidin-4-yl)ethyl)piperidin-4-yl)-1-(6-(2-hydroxyphenyl)pyridazin-4-yl)-4-methoxy-n-methylpiperidine-4-carboxamide]
